Reference: patent US7402548B2, “Benzoxazole compounds, process for producing the same and herbicides” (Kyoyu Agri Co., Ltd., priority 2000, dated 2008)

What was measured:
livid amaranth [1] = test: Foliar spread test for upland field; type: in vivo, Amaranthus lividus; set-up: key: 0 = normal development, 5 = all killed (6 ranks vs. untreated); conditions: foliar spray, 500 ppm, 3 weeks, glass house 25° C.
Protocol: (§1) The herbicidal effects are evaluated according to the following 6 ranks as compared with non-treated district. (0: normal development, 1: Less damaged, 2: Slightly damaged, 3: Moderately damaged, 4: Severely damaged, 5: All killed). Incidentally, “-” in the column means not investigated.
(§2) Wagner pots, each having an area of 1/5000 are, were packed with volcanic ash soil and then each seed of corn, soybean, cotton, wheat, solgum, sugar beat, Large crabgrass, barnyardgrjass, green foxtail, blackgrass, annual bluegrass, common lambsquarters, livid amaranth, velvetleaf, morning glory, Xanthium pensylvanicum and Cassia obtusifolia was planted, covered with soil and grown in a glass house at an average temperature of 25° C. for about 2 weeks.
(§3) Each wettable powder of the desired compounds (I) shown in Tables 1 to 21, 24, 25, 28 and 29 prepared in accordance with Example 2 was diluted to 500 ppm with water containing a surfactant (0.5%) and then uniformly sprayed on the above respective plants.
(§4) After these plants were controlled in a glass house at an average temperature of 25° C. for 3 weeks, the herbicidal effects thereof were investigated.
(§5) The herbicidal effects were evaluated according to the evaluation method described in the above (1).

green foxtail [2] = test: Soil treatment test for upland field; type: in vivo, Setaria viridis; set-up: key: 0 = normal development, 5 = all killed; conditions: 500 g/ha, 3 weeks, glass house 25° C.
Protocol: as §1
(§6) Wagner pots, each having an area of 1/5000 are, were packed with Ube soil (alluvial soil), and then each seed of corn, soybean, cotton, wheat, solgum, sugar beat, Large crabgrass, barnyard grass, green foxtail, blackgrass, annual bluegrass, common lambsquarters, livid amaranth, velvetleaf, morning glory, common Cocklebur (Xanthium strumarium) and sicklepod (Cassia obtusifolia) were planted and covered with soil.
(§7) Each wettable powder of the desired compounds (I) shown in Tables 1 to 21, 24, 25, 28 and 29 prepared in accordance with Example 2 was diluted with water containing a surfactant (0.05%) and uniformly sprayed on the surface of each soil so that an effective concentration of the compound (I) in each herbicide became 500 g/ha.
(§8) These plants were controlled in a glass house at an average temperature of 25° C. for 3 weeks, and then herbicidal effects thereof were investigated.
as §5

green foxtail [3] = test: Foliar spread test for upland field; type: in vivo, Setaria viridis; set-up: key: 0 = normal development, 5 = all killed (6 ranks vs. untreated); conditions: foliar spray, 500 ppm, 3 weeks, glass house 25° C.
Protocol: as §1, §2, §3, §4, §5

Large crabgrass [4] = test: Soil treatment test for upland field; type: in vivo, Digitaria adscendens; set-up: key: 0 = normal development, 5 = all killed; conditions: 500 g/ha, 3 weeks, glass house 25° C.
Protocol: as §1, §6, §7, §8, §5

wheat [5] = test: Foliar spread test for upland field; type: in vivo; set-up: key: 0 = normal development, 5 = all killed (6 ranks vs. untreated); conditions: foliar spray, 500 ppm, 3 weeks, glass house 25° C.
Protocol: as §1, §2, §3, §4, §5

corn [6] = test: Foliar spread test for upland field; type: in vivo; set-up: key: 0 = normal development, 5 = all killed (6 ranks vs. untreated); conditions: foliar spray, 500 ppm, 3 weeks, glass house 25° C.
Protocol: as §1, §2, §3, §4, §5

annual bluegrass [7] = test: Soil treatment test for upland field; type: in vivo, Poa annua; set-up: key: 0 = normal development, 5 = all killed; conditions: 500 g/ha, 3 weeks, glass house 25° C.
Protocol: as §1, §6, §7, §8, §5

common lambsquarters [8] = test: Foliar spread test for upland field; type: in vivo, Chenopodium album; set-up: key: 0 = normal development, 5 = all killed (6 ranks vs. untreated); conditions: foliar spray, 500 ppm, 3 weeks, glass house 25° C.
Protocol: as §1, §2, §3, §4, §5

livid amaranth [9] = test: Soil treatment test for upland field; type: in vivo, Amaranthus lividus; set-up: key: 0 = normal development, 5 = all killed; conditions: 500 g/ha, 3 weeks, glass house 25° C.
Protocol: as §1, §6, §7, §8, §5

wheat [10] = test: Soil treatment test for upland field; type: in vivo; set-up: key: 0 = normal development, 5 = all killed; conditions: 500 g/ha, 3 weeks, glass house 25° C.
Protocol: as §1, §6, §7, §8, §5

soybean [11] = test: Soil treatment test for upland field; type: in vivo; set-up: key: 0 = normal development, 5 = all killed; conditions: 500 g/ha, 3 weeks, glass house 25° C.
Protocol: as §1, §6, §7, §8, §5

corn [12] = test: Soil treatment test for upland field; type: in vivo; set-up: key: 0 = normal development, 5 = all killed; conditions: 500 g/ha, 3 weeks, glass house 25° C.
Protocol: as §1, §6, §7, §8, §5

common lambsquarters [13] = test: Soil treatment test for upland field; type: in vivo, Chenopodium album; set-up: key: 0 = normal development, 5 = all killed; conditions: 500 g/ha, 3 weeks, glass house 25° C.
Protocol: as §1, §6, §7, §8, §5

barnyard grass = test: Soil treatment test for upland field; type: in vivo, Eschinochloa crusgalli; set-up: key: 0 = normal development, 5 = all killed; conditions: 500 g/ha, 3 weeks, glass house 25° C.
Protocol: as §1, §6, §7, §8, §5

velvetleaf [14] = test: Soil treatment test for upland field; type: in vivo, Abutilon theophrasti; set-up: key: 0 = normal development, 5 = all killed; conditions: 500 g/ha, 3 weeks, glass house 25° C.
Protocol: as §1, §6, §7, §8, §5

velvetleaf [15] = test: Foliar spread test for upland field; type: in vivo, Abutilon theophrasti; set-up: key: 0 = normal development, 5 = all killed (6 ranks vs. untreated); conditions: foliar spray, 500 ppm, 3 weeks, glass house 25° C.
Protocol: as §1, §2, §3, §4, §5

morning glory [16] = test: Foliar spread test for upland field; type: in vivo, Ipomoea spps.; set-up: key: 0 = normal development, 5 = all killed (6 ranks vs. untreated); conditions: foliar spray, 500 ppm, 3 weeks, glass house 25° C.
Protocol: as §1, §2, §3, §4, §5

Large crabgrass [17] = test: Foliar spread test for upland field; type: in vivo, Digitaria adscendens; set-up: key: 0 = normal development, 5 = all killed (6 ranks vs. untreated); conditions: foliar spray, 500 ppm, 3 weeks, glass house 25° C.
Protocol: as §1, §2, §3, §4, §5

blackgrass [18] = test: Foliar spread test for upland field; type: in vivo, Alopecurus aegualis; set-up: key: 0 = normal development, 5 = all killed (6 ranks vs. untreated); conditions: foliar spray, 500 ppm, 3 weeks, glass house 25° C.
Protocol: as §1, §2, §3, §4, §5

barnyardgrjass = test: Foliar spread test for upland field; type: in vivo, Eschinochloa crusgalli; set-up: key: 0 = normal development, 5 = all killed (6 ranks vs. untreated); conditions: foliar spray, 500 ppm, 3 weeks, glass house 25° C.
Protocol: as §1, §2, §3, §4, §5

morning glory [19] = test: Soil treatment test for upland field; type: in vivo, Ipomoea spps.; set-up: key: 0 = normal development, 5 = all killed; conditions: 500 g/ha, 3 weeks, glass house 25° C.
Protocol: as §1, §6, §7, §8, §5

annual bluegrass [20] = test: Foliar spread test for upland field; type: in vivo, Poa annua; set-up: key: 0 = normal development, 5 = all killed (6 ranks vs. untreated); conditions: foliar spray, 500 ppm, 3 weeks, glass house 25° C.
Protocol: as §1, §2, §3, §4, §5

soybean [21] = test: Foliar spread test for upland field; type: in vivo; set-up: key: 0 = normal development, 5 = all killed (6 ranks vs. untreated); conditions: foliar spray, 500 ppm, 3 weeks, glass house 25° C.
Protocol: as §1, §2, §3, §4, §5

sugar beat [22] = test: Foliar spread test for upland field; type: in vivo; set-up: key: 0 = normal development, 5 = all killed (6 ranks vs. untreated); conditions: foliar spray, 500 ppm, 3 weeks, glass house 25° C.
Protocol: as §1, §2, §3, §4, §5

cotton = test: Foliar spread test for upland field; type: in vivo; set-up: key: 0 = normal development, 5 = all killed (6 ranks vs. untreated); conditions: foliar spray, 500 ppm, 3 weeks, glass house 25° C.
Protocol: as §1, §2, §3, §4, §5

solgum [23] = test: Foliar spread test for upland field; type: in vivo; set-up: key: 0 = normal development, 5 = all killed (6 ranks vs. untreated); conditions: foliar spray, 500 ppm, 3 weeks, glass house 25° C.
Protocol: as §1, §2, §3, §4, §5

sugar beat [24] = test: Soil treatment test for upland field; type: in vivo; set-up: key: 0 = normal development, 5 = all killed; conditions: 500 g/ha, 3 weeks, glass house 25° C.
Protocol: as §1, §6, §7, §8, §5

solgum [25] = test: Soil treatment test for upland field; type: in vivo; set-up: key: 0 = normal development, 5 = all killed; conditions: 500 g/ha, 3 weeks, glass house 25° C.
Protocol: as §1, §6, §7, §8, §5

blackgrass [26] = test: Soil treatment test for upland field; type: in vivo, Alopecurus aegualis; set-up: key: 0 = normal development, 5 = all killed; conditions: 500 g/ha, 3 weeks, glass house 25° C.
Protocol: as §1, §6, §7, §8, §5

SMILES	Effects Livid amaranth (livid amaranth [1])	Effects Green foxtail (green foxtail [2])	Effects Green foxtail (green foxtail [3])	Effects Large crabgrass (Large crabgrass [4])	Effects Wheat (wheat [5])	Effects Corn (corn [6])	Effects Annual bluegrass (annual bluegrass [7])	Effects Common lambsquarters (common lambsquarters [8])	Effects Livid amaranth (livid amaranth [9])	Effects Wheat (wheat [10])	Effects Corn (corn [12])	Effects Common lambsquarters (common lambsquarters [13])	Effects Barnyardgrass (barnyard grass)	Effects Velvetleaf (velvetleaf [14])	Effects Velvetleaf (velvetleaf [15])	Effects Morning glory (morning glory [16])	Effects Large crabgrass (Large crabgrass [17])	Effects Blackgrass (blackgrass [18])	Effects Barnyardgrass (barnyardgrjass)	Effects Morning glory (morning glory [19])	other results
CCC(Oc1cc(C(F)(F)F)nn1C)c1nc2cc(Cl)ccc2o1 (centres unmarked) [Compound 1-e-2]	4	3	2	3	1	1	3	3	5	0	0	2									Effects Soybean (soybean [11]): 0
CCCC(Oc1cc(C)nc(SC)n1)c1nc2cc(C#N)c(F)cc2o1 (centres unmarked) [Compound 1-e-65]		4		4					5	0	0	2									Effects Soybean (soybean [11]): 0
CCCC(=Cc1cccc(C(F)(F)F)c1)c1nc2cc([N+](=O)[O-])ccc2o1 [I-c-74]	5	5	5	5	2	2	5	5	5	1	2	5	5	5	4	5	4	2	2	5	Effects Annual bluegrass (annual bluegrass [20]): 4; Effects Soybean (soybean [21]): 5; Effects Sugar beat (sugar beat [22]): 4; Effects Sotton (cotton): 5; Effects Solgum (solgum [23]): 2; Effects Sugar beat (sugar beat [24]): 5; Effects Solgum (solgum [25]): 2; Effects Blackgrass (blackgrass [26]): 4
CCCC(=Cc1cccc(C(F)(F)F)c1)c1nc2cc(C#N)ccc2o1 [I-c-83]	5	5	5	5	2	3	5	5	5	1	2	5	4	5	4	5	4	4	2	5	Effects Annual bluegrass (annual bluegrass [20]): 4; Effects Soybean (soybean [21]): 4; Effects Sugar beat (sugar beat [22]): 5; Effects Sotton (cotton): 5; Effects Solgum (solgum [23]): 3; Effects Sugar beat (sugar beat [24]): 5; Effects Solgum (solgum [25]): 1; Effects Blackgrass (blackgrass [26]): 5
CCCC(=Cc1cccc(C(F)(F)F)c1)c1nc2cc(F)c(F)cc2o1 [I-c-113]	5	5	5	5	2	2	5	5	5	2	2	5	5	5	4	5	4	4	3	4	Effects Annual bluegrass (annual bluegrass [20]): 4; Effects Soybean (soybean [21]): 5; Effects Sugar beat (sugar beat [22]): 5; Effects Sotton (cotton): 5; Effects Solgum (solgum [23]): 3; Effects Sugar beat (sugar beat [24]): 5; Effects Solgum (solgum [25]): 2; Effects Blackgrass (blackgrass [26]): 5
CC(=Cc1cccc(C(F)(F)F)c1)c1nc2cc(C#N)c(Cl)cc2o1 [I-c-141]	5	5	5	5	1	2	5	5	5	0	0	5	4	5	4	5	3	1	1	5	Effects Annual bluegrass (annual bluegrass [20]): 3; Effects Soybean (soybean [21]): 3; Effects Sugar beat (sugar beat [22]): 5; Effects Sotton (cotton): 5; Effects Solgum (solgum [23]): 1; Effects Sugar beat (sugar beat [24]): 5; Effects Solgum (solgum [25]): 0; Effects Blackgrass (blackgrass [26]): 4
CCC(Oc1cc(C(F)(F)F)on1)c1nc2cc(C#N)c(F)cc2o1 (centres unmarked) [I-e-40, 1-(5-cyano-6-fluorobenzoxazol-2-yl)-1-(5-trifluoromethylisoxazol-3-yloxy)propane]	5	5	4	5	2		5	5	5	0	1	5	5				4				Effects Soybean (soybean [11]): 2
